Here are results for 2 molecules from patent US10197574B2, “Analyte detection using near-infrared fluorophores” (Portland State University, priority 2011, dated 2019).

The nature of series [1]: Saccharide sensing, absorbance and fluorescence response. As for the experimental part: Solvents including MeCN, MeOH, EtOH, DMSO and buffer were initially screened for sugar sensing. […] DMSO mixtures were chosen for further studies.
The final pH 7.4 phosphate buffer concentration was 12.5 mM.

Series [2] is described as follows: Saccharide sensing, response to fructose. The settings on record: DMSO:buffer 1:9; estimated from 140-fold fluorescence and 3-fold absorbance increase.
The nature of series [3]: Saccharide sensing, response to ribose. The settings on record: DMSO:buffer 1:1, entire concentration range investigated. As for the experimental part: The spectral behavior of both compounds 51 and 53 in the presence of saccharides was further investigated in both 1:1 and 1:9 DMSO-buffer (final pH 7.4 phosphate buffer concentration of 12.5 mM) solutions. Both bis-boronic acids responded to binding of sugars through a red shift in their emission and the expected increase in fluorescence intensity.
FIGS. 37A-37D show the response of bis-boronic acid 51 to fructose, ribose and glucose under the two solvent conditions mentioned above. […] At high sugar concentrations, the response for all three sugars converged. […] An approximately 1.5-fold increase in both absorbance and fluorescence was observed over the entire concentration range investigated. Binding of all three sugars occurred at lower concentrations as compared to the 1:9 DMSO:buffer system, with the response of both ribose and fructose having already plateaued at 10 mM, the lowest concentration investigated. Unlike the 1:9 solvent system, there were significant spectral differences in the responses toward different sugars (FIG. 37C compared to FIG. 37A).

The nature of series [4]: Spectral properties of rhodamine bis-boronic acids and precursors (Table 5). Type of series: physicochemical. The text has this:
Excitation and emission spectra were normalized to their absorbance at the excitation wavelength, and are proportional to quantum yield.

Setting [5] is: DMSO:buffer 1:9, high sugar concentrations, all sugars.
[6] abbreviates: DMSO:buffer 1:1, pH 7.4 phosphate buffer 12.5 mM.
Setting [7] is: DMSO:buffer 1:9, pH 7.4 phosphate buffer 12.5 mM.

Marks after values point to notes of the source that are not given here.

`O=C(O)c1ccccc1-c1c2ccc3cc(NCc4ccccc4B(O)O)ccc3c2oc2c1ccc1cc(=NCc3ccccc3B(O)O)ccc12` [Compound 53]: in series [1] (DMSO:buffer 1:1, all three sugars, emission at 720 nm, excitation at 640 nm), the increase in emission is on record as ~5 fold. In addition, the “quantum yield after binding” value in series [2] is recorded as 0.186.

`O=C(O)c1ccccc1-c1c2ccc(NCc3ccccc3B(O)O)cc2oc2c1ccc1cc(=NCc3ccccc3B(O)O)ccc12` [Compound 51]: in series [1] (setting [5]), the increase in absorbance is ~2 fold and the increase in fluorescence result is on record as “greater than 5 fold”. Further, in series [3], the increase in absorbance result was “approximately 1.5 fold” and the increase in fluorescence result is reported as “approximately 1.5 fold”. Also, in series [4] (setting [6]), the Abs is 579 nm, the Brightness amounted to 8037, the Em was determined as 643 nm and the Ex amounted to 580 nm. Also, in series [4] (setting [6]), the Q.Y. came out at 0.35 and the ε is 23096 M⁻¹ cm⁻¹. In addition, in series [4] (setting [7]), the Abs was 560 nm, the Brightness is 3032^e, the Em turned out to be 638 nm and the Ex was 568 nm. In series [4] (setting [7]), this molecule yielded a Q.Y. of 0.15 and a ε of 20326 M⁻¹ cm⁻¹.
